Test results from US20210214303A1, “SCORPION VENOM BENZOQUINONE DERIVATIVES AND USES THEREOF” (priority 2018, published 2021).
Entries after “also recorded” stand apart in the source; their conditions may differ. Like-named read-outs stand apart in the source and are kept apart here.

Legend:
[1] = tested on: Staphylococcus aureus; assay: Time-kill assay; type: cell-based; details: for killing of S. aureus: at their MICs
[2] = tested on: TE 671 (rhabdomyosarcoma cells); assay: cytotoxicity assay, LDH release; type: cell-based, human; details: 1, 5, and 25 μM, 12 hours
Experimental: (§1) Cytotoxicity to PBMCs and to Neoplastic Cells: The cytotoxicity of the 1,4 benzoquinones of the disclosure was tested with peripheral blood mononuclear cells (PBMCs) and various human neoplastic cell lines: A549 (adenocarcinomic lung epithelial cells), Jurkat (T cell leukemia), TE 671 (rhabdomyosarcoma cells) and SH-SY5Y (bone marrow neuroblastoma cells).
(§2) PBMCs were obtained from healthy blood donors and isolated by Ficoll-Paque PLUS density gradient centrifugation and resuspended in RPMI-1640 medium supplemented with 10% fetal calf serum. Cells were incubated at 37° C. in 5% CO2 overnight and non-adherent cells were recovered and used for subsequent experiments. The neoplastic cell lines were cultured according to the ATCC guidelines.
(§3) For cytotoxicity assays, cells were resuspended in DMEM without phenol red, supplemented with 2% heat-inactivated fetal calf serum. Cells were plated in 96-well polystyrene cell culture plates (2×10^4 to 2×10^5 cells/well depending on the cell type) and incubated at 37° C. in 5% CO2 for 8 hours to promote cell adhesion to the well's surface. The red and blue 1,4 benzoquinones were administered to achieve final concentrations of 1, 5, and 25 μM. Cells were then incubated at 37° C. in 5% CO2 for 12 hours. Following the incubation period, plates were centrifuged at 300×g for 10 minutes and supernatants were harvested to evaluate cell viability with the CytoTox 96@ Non-Radioactive Cytotoxicity Assay (Promega). This assay quantitatively measures lactate dehydrogenase (LDH), a stable cytosolic enzyme that is released upon cell lysis. The released LDH in the culture supernatants was measured with a colorimetric coupled enzymatic assay according to the manufacturer's instructions.

[3] = tested on: SH-SY5Y (bone marrow neuroblastoma cells); assay: cytotoxicity assay, LDH release; type: cell-based, human; details: 1, 5, and 25 μM, 12 hours
Experimental: as §1, §2, §3

[4] = tested on: Jurkat (T cell leukemia); assay: cytotoxicity assay, LDH release; type: cell-based, human; details: 1, 5, and 25 μM, 12 hours
Experimental: as §1, §2, §3

[5] = tested on: A549 (adenocarcinomic lung epithelial cells); assay: cytotoxicity assay, LDH release; type: cell-based, human; details: 1, 5, and 25 μM, 12 hours
Experimental: as §1, §2, §3

[6] = tested on: peripheral blood mononuclear cells (PBMCs); assay: cytotoxicity assay, LDH release; type: cell-based, human; details: 25 μM, 12 hours
Experimental: FIG. 14B illustrates a cytotoxic effect of the 1,4 benzoquinones of the disclosure on peripheral blood mononuclear cells (PBMCs). PBMCs were incubated with the red and blue 1,4 benzoquinones at a concentration of 25 μM for 12 hours, and cell death was evaluated by the release of the stable cytosolic enzyme lactate dehydrogenase. […] Each result is reported as the mean±SD.
as §1, §2, §3

[7] = intratracheal treatment of healthy mice, lung histology; type: in vivo; details: 8 μg intratracheally for one month
Experimental: FIGS. 21C-21F illustrate representative micrographs of lung (hematoxylin-eosin staining, 250× magnification) from the untreated group (FIG. 21C) showing extensive areas of pneumonia (asterisk). […] A representative micrograph of a healthy mouse treated intratracheally for one month with 8 μg of the blue 1,4 benzoquinone is shown in FIG. 21E.
The bactericidal activity of the blue compound was tested against progressive pulmonary tuberculosis using an experimental infection model in BALB/c mice. […] This same dose was administered intratracheally to healthy mice for one month, after which they were sacrificed, and their lungs examined.

[8] = tested on: Mycobacterium tuberculosis; type: cell-based; details: electron microscopy
[9] = tested on: Candida. albicans; assay: activity against pathogenic fungus; type: cell-based
[10] = tested on: Mycobacterium tuberculosis MDR strain; assay: colony-forming units after treatment at the MIC; type: cell-based
[11] = tested on: E. coli; assay: activity against gram negative E. coli; type: cell-based

Row | Structure (SMILES) | Colony-forming Units (CFU) ([1]; 0 hr incubation, 2 × MIC) | Colony-forming Units (CFU) ([1]; 0 hr incubation, MIC) | Colony-forming Units (CFU) ([1]; 6 hr incubation, 2 × MIC) | Colony-forming Units (CFU) ([1]; 6 hr incubation, MIC) | Colony-forming Units (CFU) ([1]; 12 hr incubation, 2 × MIC) | Colony-forming Units (CFU) ([1]; 12 hr incubation, MIC) | Colony-forming Units (CFU) ([1]; 24 hr incubation, 2 × MIC) | Colony-forming Units (CFU) ([1]; 24 hr incubation, MIC) | killing of S. aureus ([1]; in 6 h) [%] | killing of S. aureus ([1]; in 24 h) [%] | cytotoxic effect on TE 671 cells (LDH release) [2] | cytotoxic effect on SH-SY5Y cells (LDH release) [3] | cytotoxic effect on Jurkat cells (LDH release) [4] | cytotoxic effect on A549 cells (LDH release) [5] | PBMCs killed [6] [%] | cytotoxic effect on PBMCs (LDH release) [6] | activity against the pathogenic fungus Candida. albicans [9] | activity against gram negative E. coli [11] | other results
1 | COC1=CC(=O)C(SC)=C(SC)C1=O [blue 1,4 benzoquinone, 5-methoxy-2,3-bis(methylthio)cyclohexa-2,5-diene-1,4-dione] | 339 Colony-forming units per plate | 352 Colony-forming units per plate | 21 Colony-forming units per plate | 45 Colony-forming units per plate | 2 Colony-forming units per plate | 1 Colony-forming units per plate | 0 Colony-forming units per plate | 2 Colony-forming units per plate | 90 | 99.9 | comparably potent in inducing death | comparably potent in inducing death | comparably potent in inducing death | remained relatively unaffected | 50 | cytotoxic against PBMCs | Neither 1,4 benzoquinone showed activity | neither compound was found to have appreciable activity; also recorded: Neither 1,4 benzoquinone showed activity | pulmonary histology of healthy mice [7]: The pulmonary histology is normal, with the exception of occasional mild inflammatory infiltrates found around venules; also recorded: only minor inflammatory infiltrates found around the venules; lung fibrosis in healthy mice ([7]; trichrome Masson staining): No fibrosis was seen; ultrastructural changes in Mycobacterium tuberculosis bacilli [8]: ultrastructural changes were promoted; ultrastructural changes in Mycobacterium tuberculosis bacilli ([8]; listed as blue benzoquinone): ultrastructural changes; killing in comparison to the inoculum bacteria concentration [10]: more than 90%
2 | COC1=CC(=O)C(SC)=C(OC)C1=O [red 1,4 benzoquinone, 3,5-dimethoxy-2-(methylthio)cyclohexa-2,5-diene-1,4-dione] | 311 Colony-forming units per plate | 298 Colony-forming units per plate | 9 Colony-forming units per plate | 22 Colony-forming units per plate | 0 Colony-forming units per plate | 3 Colony-forming units per plate | 0 Colony-forming units per plate | 0 Colony-forming units per plate | 90 | 99.9 | comparably potent in inducing death | comparably potent in inducing death | comparably potent in inducing death | remained relatively unaffected | 60 | cytotoxic against PBMCs | Neither 1,4 benzoquinone showed activity | neither compound was found to have appreciable activity; also recorded: Neither 1,4 benzoquinone showed activity | 
